From patent US20260250257A1, “ANTIBACTERIAL AND SYNERGISTIC ACTIVE COMPOUND AND USE THEREOF” (EAST CHINA UNIVERSITY OF SCIENCE AND TECHNOLOGY, priority 2023, published 2026)
≈ marks a conversion by molar mass, not a printed value.

Columns and labels:
Type in all cases: cell-based
[1] = tested on: ATCC9027 strain (Pseudomonas aeruginosa); experiment: Broth microdilution, antibacterial activity of the compound used alone; conditions: for MIC: read-out: Antibacterial activity of the compound of Formula I, ATCC9027
Source text: (§1) The broth microdilution method was used to test the antibacterial effects of the compounds of the present invention against various Gram-negative bacterial strains when used alone.

[2] = tested on: ATCC25922 strain (Escherichia coli); experiment: as above; conditions: for MIC: read-out: Antibacterial activity of the compound of Formula I, ATCC25922
Source text: as §1

[3] = tested on: ATCC19606 strain (Acinetobacter baumannii); experiment: as above; conditions: for MIC: read-out: Antibacterial activity of the compound of Formula I, ATCC19606
Source text: as §1

[4] = tested on: ATCC13883 strain (Klebsiella pneumoniae); experiment: as above; conditions: for MIC: read-out: Antibacterial activity of the compound of Formula I, ATCC13883
Source text: as §1

[5] = tested on: ATCC9027 strain (Pseudomonas aeruginosa); experiment: Checkerboard antibacterial synergistic activity test with polymyxin E (FIC); design: key: FIC≤0.5 synergy; 0.5–1 additive; 1–2 indifferent; ≥2 antagonism; conditions: combined with polymyxin E
Procedure: (§2) Polymyxin E was diluted in sterile MH broth medium to concentrations of 16, 8, 4, 2, 1, 0.5, 0.25, 0.125, 0.0625, 0.031, and 0.015 μg/ml, and the drug to be tested was diluted to concentrations of 256, 128, 64, 32, 16, 8, and 4 μg/ml. According to the checkerboard method, combinations of the drug to be tested and polymyxin at different concentrations in ascending order were placed into a 96-well plate, and corresponding blank control groups were set up. 50 μl of the drug solution was added to each well, then 100 μl of bacterial liquid was added, and incubated in a 37° C. incubator for 16 hours. […] Calculation and judgment criteria:
(§3) Fractional Inhibitory Concentration (FIC) is calculated as follows: […]
(§4) Judgment criteria: FIC≤0.5: synergistic effect; 0.5<FIC<1: additive effect; 1<FIC<2: indifferent effect; FIC≥2: antagonistic effect.
(§5) In the table: ATCC19606 strain is Acinetobacter baumannii, ATCC25922 strain is Escherichia coli, ATCC13883 strain is Klebsiella pneumoniae, ATCC9027 strain is Pseudomonas aeruginosa. All four strains were purchased from ATCC.

[6] = tested on: ATCC25922 strain (Escherichia coli); experiment: as above; design: key: FIC≤0.5 synergy; 0.5–1 additive; 1–2 indifferent; ≥2 antagonism; conditions: combined with polymyxin E
Procedure: as §2, §3, §4, §5

[7] = tested on: ATCC19606 strain (Acinetobacter baumannii); experiment: as above; design: key: FIC≤0.5 synergy; 0.5–1 additive; 1–2 indifferent; ≥2 antagonism; conditions: combined with polymyxin E
Procedure: as §2, §3, §4, §5

[8] = tested on: ATCC13883 strain (Klebsiella pneumoniae); experiment: as above; design: key: FIC≤0.5 synergy; 0.5–1 additive; 1–2 indifferent; ≥2 antagonism; conditions: combined with polymyxin E
Procedure: as §2, §3, §4, §5

Row | MIC [1] [µg/mL] | MIC [2] [µg/mL] | MIC [3] [µg/mL] | MIC [4] [µg/mL] | SMILES | Antibacterial activity of the compound of Formula I, ATCC9027 [1] [µg/mL] | Antibacterial activity of the compound of Formula I, ATCC25922 [2] [µg/mL] | Antibacterial activity of the compound of Formula I, ATCC19606 [3] [µg/mL] | Antibacterial activity of the compound of Formula I, ATCC13883 [4] [µg/mL] | Synergistic activity (FIC value) ATCC9027 [5] | Synergistic activity (FIC value) ATCC25922 [6] | Synergistic activity (FIC value) ATCC19606 [7] | Synergistic activity (FIC value) ATCC13883 [8]
1 |  |  |  |  | NC(N)=Nc1nc(-c2cccc(Oc3ccc(Cl)cc3Cl)c2)cs1 [Compound I-95] | 256 | 256 | 256 | 256 | 0.04 | 0.04 | 0.38 | 0.19
2 |  |  |  |  | Clc1ccc(Oc2ccccc2-c2c[nH]c(N=C3NCCCN3)n2)c(Cl)c1 [Compound I-146] | 256 | 256 | 256 | 256 | 0.06 | 0.14 | 0.31 | 0.09
3 |  |  |  |  | Clc1ccc(Oc2cc(Cl)ccc2-c2c[nH]c(N=C3NCCCN3)n2)c(Cl)c1 [Compound I-150] | 256 | 256 | 256 | 256 | 0.06 | 0.14 | 0.31 | 0.09
4 |  |  |  |  | COc1ccc(Oc2ccccc2-c2csc(N=C3NCCCN3)n2)c(OC)c1 [Compound I-149] | 256 | 256 | 256 | 256 | 0.28 | 0.18 | 0.03 | 0.16
5 | 256 (≈ 676 µM) | 256 (≈ 676 µM) | 256 (≈ 676 µM) | 256 (≈ 676 µM) | Cc1ccc(Oc2ccccc2-c2csc(NC3=NCCCN3)n2)c(C)c1 [Compound I-143] |  |  |  |  | 0.04 | 0.04 | 0.38 | 0.19
6 |  |  |  |  | CCc1sc(N=C(N)N)nc1-c1ccccc1Oc1ccc(N2CCOCC2)cc1 [Compound I-102] | 256 | 256 | 256 | 256 | 0.51 | 1.25 | 1.25 | 1.25
7 |  |  |  |  | COc1ccc(Oc2ccccc2-c2csc(N=C(N)N)n2)c(OC)c1 [Compound I-88] | 256 | 256 | 256 | 256 | 0.28 | 0.2 | 0.04 | 0.13
8 |  |  |  |  | NC(N)=Nc1nc(-c2cc(Cl)cc(Oc3ccc(Cl)cc3Cl)c2)cs1 [Compound I-99] | 256 | 256 | 256 | 256 | 0.28 | 0.18 | 0.03 | 0.16
9 |  |  |  |  | Ic1ccccc1-c1c[nH]c(N=C2NCCCN2)n1 [Compound I-179] | 64 | 128 | 256 | 128 | 0.51 | 1.25 | 1.25 | 1.25
10 |  |  |  |  | NC(N)=Nc1nc(-c2cccc3cc(Cl)ccc23)co1 [Compound I-64] | 256 | 256 | 256 | 256 | 1.25 | 0.63 | 0.52 | 0.52
11 |  |  |  |  | NC(N)=Nc1nc(-c2ccc3ccccn23)cs1 [Compound I-122] | 256 | 256 | 256 | 256 | 0.75 | 0.38 | 0.56 | 0.56
12 |  |  |  |  | Ic1ccccc1Oc1ccccc1-c1csc(N=C2NCCCN2)n1 [Compound I-147] | 64 | 128 | 256 | 128 | 0.28 | 0.18 | 0.03 | 0.16
13 | 256 (≈ 654 µM) | 256 (≈ 654 µM) | 256 (≈ 654 µM) | 256 (≈ 654 µM) | NC(N)=Nc1nc(-c2ccc(OCc3ccccc3)c3nc(O)ccc23)cs1 [Compound I-114] |  |  |  |  | 1.25 | 0.5 | 0.27 | 1.25
14 |  |  |  |  | CSc1cc2ccccn2c1-c1c[nH]c(N=C2NCCCN2)n1 [Compound I-190] | 256 | 256 | 256 | 256 | 1.25 | 1.25 | 0.75 | 1.25
15 |  |  |  |  | Cc1ccccc1Oc1ccccc1-c1csc(N=C(N)N)n1 [Compound I-81] | 256 | 256 | 256 | 256 | 0.06 | 0.14 | 0.31 | 0.09
16 |  |  |  |  | NC(N)=Nc1nc(-c2c(Cl)cc(Cl)cc2Cl)c[nH]1 [Compound I-52] | 256 | 256 | 256 | 256 | 0.63 | 0.5 | 0.3 | 0.25
17 |  |  |  |  | Cc1ccc(NC(=O)Nc2cccc(-c3c[nH]c(N=C4NCCCN4)n3)c2)c(C)c1 [Compound I-199] | 256 | 256 | 256 | 256 | 0.75 | 0.51 | 0.16 | 0.51
